Experimental findings from patent US6303349A, “Esterase and methods for the production of optically active chroman compounds” (Mitsui Chemicals, Inc., priority 1997, dated 2001) are described below.

The structures appear in SMILES notation.

The assay deals with esterase from Pseudonocardia thermophila FERM BP-6275, homogeneously purified (Example 2). The assay is described as follows: Effect of inhibitors on the purified esterase (remaining hydrolysis of racemic 6-aminochroman-3-acetic acid methyl ester). The format is biochemical.

Consider `OC(CS)C(O)CS` (stereo not shown) [DTT], for which the Relative activity (inhibitor 0.1 mM, pre-incubated 30° C. 30 min, pH 7.2, reaction 55° C. 30 min, 100% = activity without inhibitors) was found to be 102%.
With `O=C(O)CN(CCN(CC(=O)O)CC(=O)O)CC(=O)O` [EDTA], the Relative activity (pH 7.2, 30 min, 5000 µM) is 103.
For `O=S(=O)(F)Cc1ccccc1` [PMSF, phenylmethylsulfonyl fluoride], where the note is “pH 7.2, 30 min, 100 µM”, the Relative activity is reported as 84 and the remaining enzyme activity is listed as 85%.
